Reference: patent publication US20260285853A1, “COMPOUNDS AND METHODS FOR MODULATING SPLICING” (REMIX THERAPEUTICS INC., priority 2023, published 2026)
Read-outs that look alike come from different tables or passages of the source.

What was measured:
Type in all cases: cell-based
MYB mRNA [1] = assay: Gene panel canonical junction qPCR assay, decrease in CJ mRNA, Table 3
Outline: (§1)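 A673 cells were plated, left to adhere for 24 h, then dosed; K562 cells were plated in 96- or 384-well format and dosed directly. Both were incubated 24 h at 37 °C with an 11-point 3-fold series (top 10 uM final). Canonical junction mRNA was then read by cDNA synthesis and qPCR.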

SMN2 mRNA = assay: as above; conditions: decrease in canonical junction (CJ) mRNA, gene panel qPCR, Table 3
Outline: as §1

HTT mRNA [2] = assay: as above
Outline: as §1

HTT mRNA [3] = assay: Splicing RT-qPCR assay (THP), Table 2A
MYB mRNA [4] = assay: Splicing RT-qPCR assay (THP), Table 2A
[5] = system: SH-SY5Y (human neuroblastoma) cells; assay: Cell viability, Cell Titer Glo 2.0 assay; conditions: read-out: Viability SHSY5Y.3 GI50
Outline: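 SH-SY5Y neuroblastoma cells are exposed to test compounds for 72 hours at 37 °C and 5% CO2, with final DMSO held at 0.1%. Cell viability is then measured with the CellTiter-Glo 2.0 assay.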

[6] = decrease in canonical junction (CJ) mRNA, gene panel qPCR, Table 3
[7] = Table 2A (THP), AJ mRNA increase, read-out: HTT AJ (increase in alternative junction mRNA, AC50)
[8] = Table 2A (THP), CJ mRNA decrease, read-out: HTT CJ (decrease in canonical junction mRNA, IC50)
[9] = Table 2A (THP), AJ mRNA increase, read-out: MYB AJ (increase in alternative junction mRNA, AC50)
[10] = Table 2A (THP), CJ mRNA decrease, read-out: MYB CJ (decrease in canonical junction mRNA, IC50)
[11] = decrease in CJ mRNA levels, canonical junction qPCR, gene panel
[12] = Table 2A, THP, HTT alternative junction (AJ) mRNA, read-out: HTT AJ (AC50, increase in alternative junction mRNA)
[13] = Table 2A, THP, HTT canonical junction (CJ) mRNA, read-out: HTT CJ (IC50, decrease in canonical junction mRNA)
[14] = Table 2A, THP, MYB alternative junction (AJ) mRNA, read-out: MYB AJ (AC50, increase in alternative junction mRNA)
[15] = Table 2A, THP, MYB canonical junction (CJ) mRNA, read-out: MYB CJ (IC50, decrease in canonical junction mRNA)

Row | IC50 (MYB mRNA [1]; [6]) | IC50 (SMN2 mRNA) | IC50 (HTT mRNA [2]; [6]) | IC50 (HTT mRNA [3]; [8]) | IC50 (MYB mRNA [4]; [10]) | GI50 [5] | IC50 (MYB mRNA [1]; [11]) | IC50 (HTT mRNA [2]; [11]) | IC50 (HTT mRNA [3]; [13]) | IC50 (MYB mRNA [4]; [15]) | SMILES | AC50 (HTT mRNA [3]; [7]) | AC50 (MYB mRNA [4]; [9]) | AC50 (HTT mRNA [3]; [12]) | AC50 (MYB mRNA [4]; [14])
1 | > 10 µM | > 10 µM | > 10 µM | > 10 µM | > 10 µM | 1 to 10 µM |  |  |  |  | CCNC1CCN(c2ccc(C(=O)Nc3cc(F)c4cnccc4c3)c3nn(C)cc23)CC1 [Compound 303, 4-[4-(ethylamino)-1-piperidyl]-N-(8-fluoro-6-isoquinolyl)-2-methylindazole-7-carboxamide] | > 10 µM | > 10 µM |  | 
2 | > 10 µM | > 10 µM | > 10 µM | > 10 µM | > 10 µM | > 10 µM |  |  |  |  | CCNC1CCN(c2cc(F)c(C(=O)Nc3cn4c(C)c(C)nc4c(F)c3OC)c3nn(C)cc23)CC1 [Compound 305, 4-[4-(ethylamino)piperidin-1-yl]-6-fluoro-N-(8-fluoro-7-methoxy-2,3-dimethyl-imidazo[1,2-a]pyridin-6-yl)-2-methylindazole-7-carboxamide] | > 10 µM | > 10 µM |  | 
3 | > 10 µM | 1 to 10 µM | 1 to 10 µM | 1 to 10 µM | > 10 µM | > 10 µM |  |  |  |  | CCNC1CCN(c2cc(F)c(C(=O)Nc3nc4c(C)nc(C)cn4n3)c3nn(C)cc23)CC1 [Compound 301, N-(6,8-dimethyl-[1,2,4]triazolo[1,5-a]pyrazin-2-yl)-4-(4-(ethylamino)piperidin-1-yl)-6-fluoro-2-methyl-2H-indazole-7-carboxamide 2,2,2-trifluoroacetate] | > 10 µM | > 10 µM |  | 
4 | 0.1 to 1 µM | < 0.1 µM | 1 to 10 µM | 1 to 10 µM | 0.1 to 1 µM | 1 to 10 µM |  |  |  |  | Cc1cn2cc(NC(=O)c3ccc(N4CC(CNC5CC5)C4)c4cn(C)nc34)cc(F)c2n1 [Compound 298, 4-[3-[(cyclopropylamino)-methyl]azetidin-1-yl]-N-(8-fluoro-2-methylimidazo[1,2-a]pyridin-6-yl)-2-methylindazole-7-carboxamide] | 1 to 10 µM | 0.1 to 1 µM |  | 
5 | > 10 µM | 0.1 to 1 µM | > 10 µM | > 10 µM | > 10 µM | 1 to 10 µM |  |  |  |  | CCNC1CCN(c2cc(F)c(C(=O)Nc3cn4cc(C5CC5)nc4c(F)c3OC)c3nn(C)cc23)CC1 [Compound 304, N-(2-cyclopropyl-8-fluoro-7-methoxyimidazo [1,2-a]pyridin-6-yl)-4-[4-(ethylamino)-piperidin-1-yl]-6-fluoro-2-methylindazole-7-carboxamide] | > 10 µM | > 10 µM |  | 
6 | > 10 µM |  | > 10 µM | > 10 µM | > 10 µM | > 10 µM |  |  |  |  | CCNC1CCN(c2ccc(C(=O)Nc3cc(CC(N)=O)c4nc(C)cn4c3)c3nn(C)cc23)CC1 [Compound 340, N-[8-(2-amino-2-oxo-ethyl)-2-methyl-imidazo[1,2-a]pyridin-6-yl]-4-[4-(ethylamino)-1-piperidyl]-2-methyl-indazole-7-carboxamide] | > 10 µM | > 10 µM |  | 
7 | < 0.1 µM |  | 0.1 to 1 µM | 0.1 to 1 µM | < 0.1 µM | 1 to 10 µM |  |  |  |  | COc1cc2nn(C)cc2cc1NC(=O)c1ccc(N2CCC3(CCCN3)CC2)c2cn(C)nc12 [Compound 541] | 0.1 to 1 µM | < 0.1 µM |  | 
8 | < 0.1 µM |  | 1 to 10 µM | 1 to 10 µM | < 0.1 µM | 0.1 to 1 µM |  |  |  |  | Cc1cn2cc(NC(=O)c3ccc(N4CCC(NC5(CF)CC5)CC4)c4cn(C)nc34)cc(F)c2n1 [Compound 378, 4-[4-[[1-(fluoromethyl)cyclopropyl]amino]-1-piperidyl]-N-(8-fluoro-2-methyl-imidazo[1,2-a]pyridin-6-yl)-2-methyl-indazole-7-carboxamide] | 1 to 10 µM | < 0.1 µM |  | 
9 |  |  |  |  |  | > 10 µM | 1 to 10 µM | > 10 µM | > 10 µM | 1 to 10 µM | Cc1cn2cc(NC(=O)c3ccc(N4CCC(NC5CC5)CC4)c4c3OCO4)cc(F)c2n1 [Compound 648, 7-[4-(cyclopropylamino)-1-piperidyl]-N-(8-fluoro-2-methyl-imidazo[1,2-a]pyridin-6-yl)-1,3-benzodioxole-4-carboxamide] |  |  | > 10 µM | 1 to 10 µM
10 |  |  |  |  |  | 1 to 10 µM | 0.1 to 1 µM | 1 to 10 µM | 1 to 10 µM | 0.1 to 1 µM | Cn1cc2cc(NC(=O)c3ccc(N4CCC(NC5CC5)CC4)c4cn(C)nc34)cc(CNc3ncccn3)c2n1 [Compound 861, 4-[4-(cyclopropylamino)-1-piperidyl]-2-methyl-N-[2-methyl-7-[(pyrimidin-2-ylamino)methyl]indazol-5-yl]indazole-7-carboxamide] |  |  | > 10 µM | 0.1 to 1 µM
11 | 0.1 to 1 µM |  | 1 to 10 µM | 1 to 10 µM | 0.1 to 1 µM | 1 to 10 µM |  |  |  |  | C#CCCC1(CCN2CCN(c3ccc(C(=O)Nc4cc(F)c5nc(C)cn5c4)c4nn(C)cc34)CC2)N=N1 [Compound 376, 4-(4-(2-(3-(but-3-yn-1-yl)-3H-diazirin-3-yl)ethyl)piperazin-1-yl)-N-(8-fluoro-2-methyl-imidazo-[1,2-a]pyridin-6-yl)-2-methyl-2H-indazole-7-carboxamide bis(2,2,2-trifluoroacetate)] | > 10 µM | 0.1 to 1 µM |  | 
12 | 1 to 10 µM |  | > 10 µM | > 10 µM | 1 to 10 µM | 1 to 10 µM |  |  |  |  | COc1c(NC(=O)c2c(F)cc(N3CCC(NC4CC4)CC3)c3cn(C)nc23)cn2cc(C)nc(C)c12 [Compound 419, 4-[4-(cyclopropylamino)-1-piperidyl]-6-fluoro-N-(8-methoxy-1,3-dimethyl-pyrrolo[1,2-a]pyrazin-7-yl)-2-methyl-indazole-7-carboxamide] | > 10 µM | 1 to 10 µM |  | 
13 | 0.1 to 1 µM |  | 1 to 10 µM | 1 to 10 µM | 0.1 to 1 µM | 1 to 10 µM |  |  |  |  | COc1cc(NC(=O)c2c(F)cc(N3CCC(NC4CC4)CC3)c3cn(C)nc23)cc2cn(C)nc12 [Compound 423, 4-[4-(cyclopropylamino)-1-piperidyl]-6-fluoro-N-(7-methoxy-2-methyl-indazol-5-yl)-2-methyl-indazole-7-carboxamide] | 1 to 10 µM | 0.1 to 1 µM |  | 
14 |  |  |  |  |  | 0.1 to 1 µM | < 0.1 µM | 1 to 10 µM | 1 to 10 µM | < 0.1 µM | COc1cc2c(N3C[C@H](C)N[C@@H](C)C3)ccc(C(=O)Nc3cc4cn(C)nc4cc3OC)n2n1 [Compound 698, 4-[(3S,5S)-3,5-dimethylpiperazin-1-yl]-2-methoxy-N-(6-methoxy-2-methyl-indazol-5-yl) pyrazolo[1,5-a]pyridine-7-carboxamide] |  |  | 1 to 10 µM | < 0.1 µM
15 |  |  |  |  |  | > 10 µM | 1 to 10 µM | > 10 µM | > 10 µM | 1 to 10 µM | Cc1cn2cc(NC(=O)c3ccc(N4CCC(NC5CC5)CC4)c4cn(C)nc34)cc(CNS(C)(=O)=O)c2n1 [Compound 816, 4-[4-(cyclopropylamino)-1-piperidyl]-N-[8-(methanesulfonamidomethyl)-2-methyl-imidazo[1,2-a]pyridin-6-yl]-2-methyl-indazole-7-carboxamide] |  |  | > 10 µM | 1 to 10 µM
16 | 0.1 to 1 µM |  | > 10 µM | > 10 µM | 0.1 to 1 µM | 1 to 10 µM |  |  |  |  | Cc1cc2cc(NC(=O)c3c(F)cc(N4CCC(NC5CC5)CC4)c4cn(C)nc34)oc2c(C)n1 [Compound 456, 4-[4-(cyclopropylamino)-1-piperidyl]-N-(5,7-dimethylfuro-[2,3-c]pyridin-2-yl)-6-fluoro-2-methyl-indazole-7-carboxamide] | > 10 µM | < 0.1 µM |  | 
17 | < 0.1 µM |  | 0.1 to 1 µM | 0.1 to 1 µM | < 0.1 µM | 0.1 to 1 µM |  |  |  |  | Cn1cc2cc(NC(=O)c3c(F)cc(N4CCC(NC5CC5)CC4)c4cn(C)nc34)c(OC3CCOC3)cc2n1 (stereo not shown) [Compound 467, 4-[4-(cyclopropyl-amino)-1-piperidyl]-6-fluoro-2-methyl-N-(2-methyl-6-tetrahydrofuran-3-yloxy-indazol-5-yl)indazole-7-carboxamide] | 0.1 to 1 µM | < 0.1 µM |  | 
